Results as given in the supplement of paper PMC10331698.
± gives the standard deviation of the averaged measurements.

What was measured:
Test in all cases: level (log10 ratio to DMSO vehicle control); higher = higher biomarker level / cell amount than vehicle control
Details in all cases: in DMSO
[1] = compound: CC(C)(C)C(=O)CC(=O)C(F)(F)C(F)(F)C(F)(F)F [(Heptafluorobutanoyl)pivaloylmethane]
Procedure: (§1)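 BioMAP Diversity Plus panel of 12 human primary cell co-culture systems (3C, 4H, LPS, SAg, BT, BF4T, BE3C, CASM3C, HDF3CGF, KF3CT, MyoF, Mphg). Compounds were added 1 h before stimulation and left for 24 h (MyoF 48 h; BT 72 h for soluble read-outs or 6 d for IgG). Biomarkers were read by ELISA, cytotoxicity by SRB, PBMC viability and proliferation by Alamar Blue. Each well value was divided by the mean of 8 DMSO control wells on the same plate and log10 transformed; duplicate blinded samples were tested at 4 concentrations.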

[2] = compound: O=C(O)C(F)(F)C(F)(F)C(F)(F)C(F)(F)C(F)(F)C(F)(F)C(F)(F)C(F)(F)C(F)(F)C(F)(F)C(F)(F)C(F)(F)F [Perfluorotridecanoic acid]
Procedure: as §1

Perfluorohexanoic acid = compound: O=C(O)C(F)(F)C(F)(F)C(F)(F)C(F)(F)C(F)(F)F [Perfluorohexanoic acid]
Procedure: as §1

[3] = compound: O=P(O)(O)CCC(F)(F)C(F)(F)C(F)(F)C(F)(F)C(F)(F)C(F)(F)C(F)(F)C(F)(F)F [((Perfluorooctyl)ethyl)phosphonic acid]
Procedure: as §1

[4] = compound: O=S(=O)(O)C(F)(F)C(F)(F)C(F)(F)C(F)(F)C(F)(F)C(F)(F)C(F)(F)C(F)(F)F [Perfluorooctanesulfonic acid]
Procedure: as §1

[5] = compound: O=S(=O)(O)C(F)(F)C(F)(F)C(F)(F)C(F)(F)C(F)(F)C(F)(F)C(F)(F)C(F)(F)F [Potassium perfluorooctanesulfonate]
Procedure: as §1

Row | Test System | level (log10) ([1]; 6700 nM) | level (log10) ([1]; 20000 nM) | level (log10) ([1]; 60000 nM) | level (log10) ([2]; 1500 nM) | level (log10) ([2]; 4400 nM) | level (log10) ([2]; 13000 nM) | level (log10) ([2]; 40000 nM) | level (log10) (Perfluorohexanoic acid; 6700 nM) | level (log10) (Perfluorohexanoic acid; 20000 nM) | level (log10) (Perfluorohexanoic acid; 60000 nM) | level (log10) ([3]; 6700 nM) | level (log10) ([3]; 20000 nM) | level (log10) ([3]; 60000 nM) | level (log10) ([4]; 6700 nM) | level (log10) ([4]; 20000 nM) | level (log10) ([4]; 60000 nM) | level (log10) ([5]; 6700 nM) | level (log10) ([5]; 20000 nM) | level (log10) ([5]; 60000 nM)
1 | 3C:CXCL9/MIG | -0.007 ± 0.016 | -0.0045 ± 0.013 | 0.004 ± 0.0071 | 0.0055 ± 0.0035 | 0.0005 ± 0.00071 | 0.003 ± 0.0085 | 0.0035 ± 0.00071 | -0.0065 ± 0.012 | -0.0045 ± 0.00071 | 0.0025 ± 0.012 | 0.006 ± 0.0057 | -0.0045 ± 0.005 | 0.0185 ± 0.0064 | 0.0035 ± 0.00071 | -0.002 ± 0.0057 | 0.009 ± 0.0057 | 0.0085 ± 0.0092 | -0.003 ± 0.0042 | 0.013 ± 0.013
2 | LPS:CD40 | 0.0275 ± 0.066 | 0.028 ± 0.068 | 0.0515 ± 0.0021 | 0.015 ± 0.092 | -0.0215 ± 0.17 | -0.032 ± 0.11 | -0.03 ± 0.092 | 0.041 ± 0.096 | 0.038 ± 0.13 | 0.0215 ± 0.14 | -0.042 ± 0.041 | -0.0535 ± 0.00071 | -0.148 ± 0.0035 | -0.018 | -0.0345 ± 0.022 | -0.076 ± 0.073 | -0.062 ± 0.052 | -0.055 ± 0.014 | -0.062 ± 0.016
3 | LPS:SRB | -0.006 | -0.0095 ± 0.0021 | -0.028 ± 0.0099 | -0.003 ± 0.014 | -0.011 ± 0.0014 | -0.008 ± 0.011 | 0.006 ± 0.021 | -0.013 ± 0.0071 | -0.009 | -0.0065 ± 0.0078 | -0.01 ± 0.0042 | -0.0195 ± 0.011 | -0.08 ± 0.047 | -0.003 ± 0.0085 | -0.003 ± 0.0028 | 0 | -0.009 ± 0.018 | -0.007 ± 0.021 | -0.001 ± 0.0057
4 | BE3C:EGFR | 0.0095 ± 0.016 | -0.0055 ± 0.023 | -0.0175 ± 0.00071 | 0.0145 ± 0.04 | -0.008 ± 0.031 | 0.0005 ± 0.022 | 0.006 ± 0.0014 | 0.003 ± 0.0014 | -0.005 ± 0.0028 | 0.0025 ± 0.015 | -0.025 ± 0.014 | -0.0355 ± 0.025 | -0.0345 ± 0.033 | 0.0025 ± 0.023 | -0.125 ± 0.059 | -0.159 ± 0.12 | -0.012 ± 0.021 | -0.173 ± 0.043 | -0.182 ± 0.071
5 | SAg:CD62E/E-Selectin | -0.003 ± 0.042 | -0.0235 ± 0.005 | -0.106 ± 0.04 | 0.0065 ± 0.018 | -0.0015 ± 0.0064 | 0.012 ± 0.0057 | 0.006 ± 0.0014 | 0.001 ± 0.018 | -0.01 ± 0.023 | 0.0195 ± 0.005 | 0.0135 ± 0.0021 | 0.0275 ± 0.019 | -0.0155 ± 0.03 | 0.012 ± 0.014 | 0.0205 ± 0.0021 | 0.04 ± 0.028 | -0.004 ± 0.0057 | 0.0315 ± 0.013 | 0.033
6 | 4H:CCL2/MCP-1 | -0.0085 ± 0.012 | -0.006 ± 0.018 | -0.0195 ± 0.059 | 0.0035 ± 0.037 | -0.0025 ± 0.026 | -0.0095 ± 0.0092 | -0.033 ± 0.014 | -0.0105 ± 0.00071 | -0.027 ± 0.0071 | 0.012 ± 0.021 | -0.01 ± 0.0042 | -0.0135 ± 0.022 | 0.004 ± 0.042 | -0.001 ± 0.0085 | -0.0275 ± 0.021 | -0.0255 ± 0.005 | 0.0095 ± 0.023 | -0.0305 ± 0.0064 | -0.0215 ± 0.025
7 | BF4T:IL-1alpha | 0.007 ± 0.011 | -0.0225 ± 0.011 | -0.028 ± 0.017 | 0.016 ± 0.025 | -0.0195 ± 0.011 | -0.009 ± 0.02 | 0.017 ± 0.018 | -0.001 ± 0.0042 | -0.0035 ± 0.012 | 0.007 ± 0.0042 | -0.0165 ± 0.015 | -0.001 ± 0.0028 | 0.015 ± 0.02 | 0.01 ± 0.011 | 0.002 ± 0.0014 | -0.002 ± 0.0099 | 0.003 ± 0.0028 | 0.0065 ± 0.0078 | 0.0125 ± 0.044
8 | 4H:CD106/VCAM-1 | -0.0175 ± 0.019 | 0.021 ± 0.045 | -0.032 ± 0.03 | -0.028 ± 0.0071 | -0.065 ± 0.04 | -0.107 ± 0.0064 | -0.089 ± 0.018 | -0.006 ± 0.028 | 0.0095 ± 0.00071 | 0.041 ± 0.045 | 0.011 ± 0.0099 | -0.0095 ± 0.016 | -0.002 ± 0.0028 | 0.016 ± 0.0085 | -0.029 | -0.0155 ± 0.0064 | 0.0085 ± 0.028 | -0.004 ± 0.016 | -0.0095 ± 0.023
9 | BF4T:MMP-9 | -0.009 ± 0.042 | 0.0205 ± 0.029 | 0.033 ± 0.0014 | 0.01 ± 0.027 | 0.0075 ± 0.043 | -0.0015 ± 0.036 | 0.033 ± 0.078 | 0.0215 ± 0.0035 | -0.01 ± 0.027 | 0.0215 ± 0.018 | -0.014 ± 0.0014 | -0.014 ± 0.011 | 0.0305 ± 0.021 | 0.02 ± 0.0028 | 0.033 ± 0.0099 | 0.019 ± 0.095 | 0.024 ± 0.017 | 0.048 ± 0.02 | 0.0665 ± 0.046
10 | BF4T:MMP-1 | 0.0005 ± 0.0035 | -0.0145 ± 0.0092 | -0.011 ± 0.02 | 0 ± 0.025 | -0.005 ± 0.0057 | -0.0015 ± 0.013 | 0.0045 ± 0.00071 | 0.0005 ± 0.015 | -0.009 ± 0.0071 | -0.0005 ± 0.0078 | -0.005 ± 0.0014 | 0.0075 ± 0.022 | 0.007 ± 0.05 | 0.02 ± 0.0014 | 0.029 ± 0.013 | 0.039 ± 0.047 | 0.028 ± 0.017 | 0.046 ± 0.0028 | 0.062 ± 0.011
11 | BF4T:SRB | -0.006 ± 0.0085 | 0.0075 ± 0.0021 | 0.0055 ± 0.023 | 0.009 ± 0.0042 | -0.0045 ± 0.005 | 0.0025 ± 0.011 | 0.008 ± 0.013 | -0.0025 ± 0.00071 | -0.0095 ± 0.0092 | 0.0105 ± 0.0064 | -0.008 ± 0.0028 | -0.009 ± 0.0014 | -0.0045 ± 0.0078 | -0.0095 ± 0.0092 | -0.0115 ± 0.0021 | -0.0015 ± 0.026 | -0.01 ± 0.011 | -0.01 ± 0.0099 | -0.002 ± 0.0099
12 | LPS:CXCL8/IL-8 | -0.019 ± 0.0099 | 0.015 ± 0.0057 | 0.0265 ± 0.013 | -0.011 ± 0.041 | -0.058 ± 0.041 | -0.0065 ± 0.042 | 0.016 ± 0.11 | 0.0035 ± 0.016 | 0.011 ± 0.0028 | 0.0575 ± 0.0035 | -0.021 ± 0.021 | -0.0255 ± 0.011 | -0.04 ± 0.0057 | -0.0005 ± 0.011 | 0.015 ± 0.02 | 0.0235 ± 0.046 | 0.0255 ± 0.067 | 0.0435 ± 0.0092 | 0.061 ± 0.05
13 | LPS:sPGE2 | 0.058 ± 0.013 | 0.04 ± 0.018 | 0.181 ± 0.023 | 0.0325 ± 0.016 | 0.0275 ± 0.049 | -0.052 ± 0.034 | -0.022 ± 0.061 | 0.025 ± 0.052 | 0.013 ± 0.021 | -0.009 ± 0.041 | 0.0605 ± 0.0021 | 0.0675 ± 0.011 | 0.17 ± 0.023 | 0.01 ± 0.035 | -0.0315 ± 0.0092 | -0.075 ± 0.013 | -0.033 ± 0.042 | -0.0005 ± 0.03 | -0.053 ± 0.096
14 | BT:sIL-2 | -0.0485 ± 0.069 | -0.022 ± 0.0057 | 0.0155 ± 0.067 | 0.064 | 0.061 ± 0.0042 | 0.0925 ± 0.022 | 0.093 ± 0.14 | -0.0225 ± 0.0064 | 0.0345 ± 0.098 | 0.0275 ± 0.074 | 0.0065 ± 0.036 | 0.067 ± 0.069 | -0.107 ± 0.22 | 0.0065 ± 0.0078 | -0.0215 ± 0.044 | 0.014 ± 0.027 | 0.042 ± 0.027 | 0.0595 ± 0.029 | -0.0325 ± 0.077
15 | BF4T:MMP-3 | -0.031 ± 0.02 | -0.0345 ± 0.029 | -0.0285 ± 0.057 | 0.042 ± 0.054 | -0.0155 ± 0.061 | 0.0115 ± 0.032 | 0.0155 ± 0.012 | 0.003 ± 0.024 | -0.0095 ± 0.00071 | 0.0295 ± 0.043 | -0.013 ± 0.02 | 0.009 ± 0.011 | 0.014 ± 0.079 | 0.012 ± 0.035 | 0.0625 ± 0.012 | 0.059 ± 0.089 | 0.0175 ± 0.028 | 0.0635 ± 0.026 | 0.087 ± 0.065
